From paper PMC9436767, “Optical control of the β2-adrenergic receptor with opto-prop-2: A cis-active azobenzene analog of propranolol” (iScience, 2022)
Several values for one entry are separate records, joined by “and”; a condition that tells them apart may be missing. Identical values can stand only once.

Legend:
[1] = PSScis and PSStrans by LC analysis; format: physicochemical; settings: for PSScis (% cis-isomer): 10 mM in DMSO after illumination with 360 nm; for PSScis (% cis-isomer) / PSStrans (% cis-isomer): LCMS area at isosbestic wavelength; for PSStrans (% cis-isomer): 10 mM in DMSO, 360 nm then 434 nm
Method: (§1) Solubility in buffer was explored for all compounds using nephelometry ([Bevan and Lloyd, 2000]) and these studies indicate good solubility of all azobenzene photoswiches up to at least 100 μM (Figure S1). […] For all compounds, 360 nm induces a large change in absorbance spectrum compared with the non-illuminated (dark) compounds (Table 1, Figure 2A, and S1), indicating photoisomerization to the cis-isomer. The absorbance peak (λmax) of Opto-prop-1-3 ranged between 319 and 347 nm for the trans-isomers and between 423 and 429 for the cis-isomers (Table 1), as is typical for azobenzene compounds ([Hauwert et al., 2018]). […] The photochemical conversions were determined by continuous illumination of the Opto-prop compounds with near UV-light (360 ± 20 nm) as 10-mM solutions in DMSO. Based on LCMS analysis, it was observed that all compounds obtained a high level of conversion to the cis-isomer with a photostationary state (PSS) of >88 area % cis-isomer (i.e. PSScis; Table 1). Subsequent back-switching to PSStrans with 434 nm maintained 22–29 area % cis-isomer (Table 1). The thermal relaxation of the PSScis state of the photoswitchable ligands was monitored over time by measuring absorbance at 254 nm. Only minor thermal relaxation to the trans-isomer could be detected at 20°C (not shown). An estimate of the relaxation rate at 20 °C was determined using a method by Priimagi et al. ([Ahmed et al., 2017]), which was performed in Hanks’ balanced salt solution (HBSS) using increased temperatures to enhance the speed of thermal relaxation. The Opto-prop ligands are all very stable as cis-isomer after illumination, with thermal relaxation half-lives of >10 days at 20 °C (See Table 1 and Figure S1).
For the determination of PSScis and PSStrans values by LC analysis (Table 1), a solution of the compound in DMSO (10 mM) was illuminated to PSScis with 360 nm and subsequently to PSStrans with 434 nm. PSS aliquots were withdrawn, diluted with MeCN and subjected to LCMS analysis with the corresponding isosbestic points wavelength: 278, 263 and 308 nm for Opto-prop-1-3, respectively.

β1-AR [2] = biological target: T1, β1-AR (Homo sapiens, UniProt P08588); test: [3H]DHA radioligand displacement on membranes of HEK293T cells expressing β1-AR; settings: for fold Ki trans vs PSScis at β1-AR: fold difference between Ki of trans and Ki at PSScis; for Active state at β1-AR: isomer state with higher affinity
Method: (§5) Membranes of HEK293T-cells transiently expressing the receptor of interest were co-incubated with the tritiated β1/β2-AR antagonist dihydroalprenolol ([^3H]DHA, Figure S2 depicts saturation binding experiments), together with increasing concentrations of the competing unlabeled ligand.
(§6) Two million HEK293T cells were seeded in a 10cm^2 dish and were transiently transfected the next day with 1 μg human β1-AR or the β2-AR plasmid DNA, 4 μg empty pcDEF3 plasmid DNA and 30 μg linear 25 kDa polyethyleneimine (PEI; Polysciences Warrington, USA) in a 150 mM NaCl solution. […] Two days after transfection, cells were resuspended and washed (3 times) with PBS and pelleted by centrifugation steps at 1500 g. After the final centrifugation step, cell pellets were reconstituted into ice-cold Tris-HCl buffer (15 mM, supplemented with 0.3 mM EDTA and 2 mM MgCl2 at pH7.4) and dounce-homogenised by plunging the pestle 10 times with 1,500 rpm (Tamson, the Netherlands). The homogenates were frozen and thawed twice using liquid nitrogen, after which the membranes were isolated using an ultra-centrifuge L70 at 40,000 g (Beckman Coulter, USA). Cell pellets were then washed and reconstituted in ice-cold 20 mM Tris-HCl buffer supplemented with 250 mM Sucrose at pH 7.4. Finally, the membrane samples where homogenized using a 23-gauge needle, snap-frozen with liquid nitrogen and stored until further experimentation at −80 °C. The protein content was determined using a BCA protein assay kit (Thermo Scientific, USA).
(§7) On the day of the experiment 0.25–0.5 μg membranes expressing either the β1-AR or the β2-AR, were co-incubated with [^3H]DHA (Perkin Elmer, USA) and increasing concentrations unlabeled ligand in HBSS buffer (Thermo Scientific, with Ca^2+ and Mg^2+) supplemented with 0.1% BSA for 1 h at 25 °C under gentile agitation. Either a 4 nM or 1 nM concentration of [^3H]DHA was used in combination with membranes expressing either the β1-AR or β2-AR, respectively. Binding reactions were terminated by filtration over a PEI coated GF/C filter (Perkin Elmer) using ice-cold 50 mM Tris-HCl buffer with 500 mM NaCl at pH 7.4. GF/C plates were dried at 52 °C and filter bound [^3H]DHA was quantified by adding 25 μL/well Microscint-O scintillation liquid and counting luminescence using the Wallac Microbeta counter, as described before.
(§8) IC50 values were determined by fitting the concentration-dependent displacement of [^3H]DHA by unlabeled ligands, with a three-parameter sigmoidal model in GraphPad Prism. […] Competition binding graphs represent the pooled data of ≥3 experiments, normalized to the fitted top and bottom of the reference sigmoidal displacement curve of unlabeled DHA.

β2-AR [3] = biological target: T2, β2-AR (Homo sapiens, UniProt P07550); test: [3H]DHA radioligand displacement on membranes of HEK293T cells expressing β2-AR; settings: for fold Ki trans vs PSScis at β2-AR: fold difference between Ki of trans and Ki at PSScis; for Active state at β2-AR: isomer state with higher affinity; for Ki: β2-AR; for selectivity in binding β2-AR over β1-AR: cis-isomer (PSScis)
Target sequence in this assay (P07550 whole entry): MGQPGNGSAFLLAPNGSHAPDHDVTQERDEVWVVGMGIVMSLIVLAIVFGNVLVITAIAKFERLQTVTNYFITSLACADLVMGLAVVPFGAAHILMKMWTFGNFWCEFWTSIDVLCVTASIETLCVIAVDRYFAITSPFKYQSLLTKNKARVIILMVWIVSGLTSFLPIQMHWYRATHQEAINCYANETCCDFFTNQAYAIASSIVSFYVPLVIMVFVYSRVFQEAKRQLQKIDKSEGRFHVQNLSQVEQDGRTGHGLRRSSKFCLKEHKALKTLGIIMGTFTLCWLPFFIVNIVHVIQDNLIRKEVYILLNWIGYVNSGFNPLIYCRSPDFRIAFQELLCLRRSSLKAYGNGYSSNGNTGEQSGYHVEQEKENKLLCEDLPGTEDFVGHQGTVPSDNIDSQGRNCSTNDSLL
Method: as §5, §6, §7, §8

[4] = UV-Vis absorbance spectra; format: physicochemical; settings: 25 μM in HBSS buffer with 1% DMSO; for λmax cis: cis-isomer; for λmax trans: trans-isomer
Method: as §1
UV-Vis spectra were obtained using a Thermo-scientific Evolution 201 PC spectrophotometer. Illumination was executed using a Sutter instruments Lambda LS with a 300 Watt full-spectrum lamp connected to a Sutter instruments Lambda 10-3 optical filter changer equipped with 360 ± 20 nm, 400 ± 5 nm, 434 ± 9 nm and 460 ± 5 nm filters. The light intensity is 0.93 mW/mm^2 using the 360 ± 20 nm filter, 0.22 mW/mm^2 using the 400 ± 5 nm filter, 0.79 mW/mm^2 for the 434 ± 9 nm filter and 0.26 mW/mm^2 for the 460 ± 5 nm filter as measured using a Thorlabs PM16-401 power meter.
For the determination of the UV-Vis spectra shown in Figure 2A, compounds (25 μM in 1% DMSO/HBSS buffer) were illuminated in Hellma Suprasil quartz 114-QS cuvettes with either a 360, 400, 434 or 460 nm filter for the indicated time. For the determination of PSScis and PSStrans states by UV spectroscopy (Figures S1D–S1F), a solution of the compound in 1% DMSO/HBSS buffer (25 μM) in a vial was illuminated to PSS cis with 360 nm (typically 4–5 min) and subsequently to PSS trans with 434 nm (typically 2–5 min). UV spectra were recorded.

[5] = Cis-to-trans thermal relaxation, Arrhenius extrapolation; format: physicochemical; settings: PSScis sample 25 μM in HBSS buffer with 1% DMSO; Arrhenius extrapolation to 20 °C
Method: as §1
Cis-to-trans thermal relaxations were performed in the dark at 25 μM of the PSS360 state of the Opto-prop-1, -2 or -3 in HBSS buffer with 1% DMSO at various temperatures (60°C, 70°C and 80°C). Absorbance was repeatedly measured at 320, 320 and 347 nm for Opto-prop-1, -2 or -3, respectively, with 60 s intervals.

β1-AR [6] = biological target: T1, β1-AR; test: Saturation binding of [3H]dihydroalprenolol, β1-AR membranes; set-up: host or cells: HEK293T, transient; membranes; settings: HEK293T membranes
Method: (§2) Figure S2. Saturation binding of [3H]dihydroalprenolol t o the β1 and β2 adrenergic rec eptors, related to Figure 3. Increasing concentrations [3H]dihydroalprenolol were incubated with membranes of HEK293T cells transiently expressing either the β1-AR (A) or β2-AR (B). Both the radioligand concentration and bound radioligand were quantified by scintillation counting. Data represent the po o led m ean ± SD of 4 experiments. Binding affinities (pKd) of [3H]dihydroalprenolol were determined by fitting the data in each individual experiment. […]
(§3) and a Bmax value of 33 ± 19 pmol/mg at membranes expressing the β2-AR.
(§4) (1 picture or pasted object on this page, not shown here)

β2-AR [7] = biological target: T2, β2-AR; test: Saturation binding of [3H]dihydroalprenolol, β2-AR membranes; set-up: host or cells: HEK293T, transient; membranes; settings: HEK293T membranes
Method: as §2, §3, §4
Target sequence in this assay (P07550 whole entry): as above

[8] = system: isolated adult rat cardiomyocytes; test: Contractility (sarcomere shortening) of paced isolated cardiomyocytes; format: cell-based; settings: paced at 2 Hz; for effect on isoprenaline-enhanced contractility: 1 μM with 15 nM isoprenaline
Method: To evaluate Opto-prop-2 in a relevant biological system with endogenous levels of the native receptor proteins, it was tested using isolated adult rat cardiomyocytes. Cardiomyocytes were paced at 2Hz, inducing contractions that were quantified by measuring the sarcomere length over time (Figure 6A). […] This enhanced contractility was attenuated by co-incubating with cis-Opto-prop-2 (magenta line) but not by trans-Opto-prop-2 (teal line) at 1 μM concentrations.
Intact adult cardiomyocytes were isolated from 3 adult wild-type Wistar rats weighing 200–250 g as described previously. ([Nollet et al., 2020]; [van Deel et al., 2017]) Briefly, rats were sedated and anesthesized by isoflurane inhalation. The heart was removed and perfused in a Langendorff setup with Liberase TM (Roche) digestive enzymes and the left ventricle was consequently cut into small pieces and resuspended in stopping buffer. This mixture was passed over a 300 μm nylon mesh filter, isolated cells in the filtrate were resuspended in buffer containing 1mM CaCl2. Cells were suspended in plating medium composed of Medium 199 (Lonza), 1% penicillin/streptomycin and 5% bovine serum and plated on a laminin coated dish (10 μg/mL, Sigma-Aldrich). The cells were incubated for 1 h at 37 °C in humidified air with 5% CO2 to let them attach to the coated dish. Afterwards, non-attached cells were removed by washing cells with pre-heated Tyrode solution (137 mM NaCl, 5.4 mM KCl, 3 mM sodium pyruvate, 5 mM HEPES, 0.57 mM MgCl2, 0.33 mM NaH2PO4, 1.0 mM CaCl2 and 5.6 mM glucose, pH 7.4 at 37 °C). Contractility measurements were performed at 37 °C using the Multi-Cell system (CytoCypher, the Netherlands). Cells were treated to vehicle (DMSO), 15 nM isoproterenol alone or in combination with 1 μM of propranolol or Opto-prop-2 (either with or without prior illumination). […]
Changes in sarcomere length were recorded with a high-speed camera and Ionoptix software (Ionoptix, Westwood MA, USA). The contractility profiles were analyzed with the automated, batch analysis software ‘Transient Analysis Tools’ (CytoCypher, Amsterdam, NL). […]

β2-AR [9] = biological target: T2, β2-AR; test: Conformational β2-AR BRET sensor in HEK293A cells
Target sequence in this assay (P07550 1-369): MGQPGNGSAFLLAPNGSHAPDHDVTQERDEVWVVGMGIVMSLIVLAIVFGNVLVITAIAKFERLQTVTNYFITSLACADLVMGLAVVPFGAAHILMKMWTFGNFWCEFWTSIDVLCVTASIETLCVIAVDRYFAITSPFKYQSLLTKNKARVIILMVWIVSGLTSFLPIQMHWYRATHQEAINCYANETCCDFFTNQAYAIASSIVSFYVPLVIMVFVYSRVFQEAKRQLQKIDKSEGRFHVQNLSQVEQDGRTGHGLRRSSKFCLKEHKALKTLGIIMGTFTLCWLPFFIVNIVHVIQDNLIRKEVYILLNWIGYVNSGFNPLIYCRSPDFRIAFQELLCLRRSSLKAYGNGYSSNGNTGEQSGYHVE
Method: The next day, cells were washed with HBSS and incubated with a 1/1000 stock solution of furimazine. […] Wells pre-incubated with 0.1% DMSO/HBSS control were treated with vehicle control.
Raw BRET ratios were defined as acceptor emission/donor emission.
Antagonist pKB values were calculated using the agonist potency and concentration together with the antagonist IC50 values, using the Cheng-Prusoff equation.

[10] = pKi PSScis, β1-AR, illuminated to PSScis (360 nm) before experiment
[11] = pKi trans, β1-AR, without prior illumination (trans-isomer)
[12] = pKi PSScis, illuminated to PSScis (360 nm) before experiment
[13] = pKi trans, without prior illumination (trans-isomer)

T1 sequence (P08588 whole entry): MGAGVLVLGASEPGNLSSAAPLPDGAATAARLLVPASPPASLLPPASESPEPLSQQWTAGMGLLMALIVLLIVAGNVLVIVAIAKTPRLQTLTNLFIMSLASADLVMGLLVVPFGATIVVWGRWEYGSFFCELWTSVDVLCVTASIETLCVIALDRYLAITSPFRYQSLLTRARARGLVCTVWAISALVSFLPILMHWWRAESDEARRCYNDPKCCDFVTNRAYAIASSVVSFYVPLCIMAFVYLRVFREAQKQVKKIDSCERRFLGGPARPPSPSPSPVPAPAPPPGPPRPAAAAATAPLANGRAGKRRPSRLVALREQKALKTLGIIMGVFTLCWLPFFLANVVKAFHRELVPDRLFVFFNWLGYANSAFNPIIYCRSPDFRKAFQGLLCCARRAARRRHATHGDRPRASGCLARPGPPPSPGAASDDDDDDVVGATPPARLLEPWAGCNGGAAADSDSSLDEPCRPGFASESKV

CC(C)NCC(O)COc1ccccc1/N=N/c1ccccc1 (stereo not drawn) [Opto-prop-1]
PSScis (% cis-isomer) [1]: 88.9 ± 1.0 % cis-isomer | PSStrans (% cis-isomer) [1]: 28.8 ± 0.3 % cis-isomer | Ki (β1-AR [2]; Ki at β1-AR, trans-isomer): < 13 nM | fold Ki trans vs PSScis at β1-AR (β1-AR [2]): 9 fold and 9.4 fold | Active state at β1-AR (β1-AR [2]): trans | Ki (β1-AR [2]; [10]): 79.4 nM | Ki (β1-AR [2]; [11]): 7.94 nM | selectivity β2-AR over β1-AR (β2-AR [3]; both isomers): ≥ 10 fold | fold Ki trans vs PSScis at β2-AR (β2-AR [3]): 4 fold and 4.3 fold | Active state at β2-AR (β2-AR [3]): trans | Ki (β2-AR [3]; [12]): 3.16 nM | Ki (β2-AR [3]; [13]): 0.794 nM | λmax cis [4]: 423 nm | λmax trans [4]: 321 nm | t1/2 20°C (thermal relaxation of cis-isomer) [5]: >10 days

CC(C)NCC(O)COc1ccc(/N=N/c2ccccc2)cc1 (stereo not drawn) [Opto-prop-3]
PSScis (% cis-isomer) [1]: 93.8 ± 0.6 % cis-isomer | PSStrans (% cis-isomer) [1]: 21.5 ± 0.1 % cis-isomer | trans-content at PSStrans ([1]; 434 nm): 78.5% | Ki (β1-AR [2]; Ki at β1-AR, trans-isomer): < 13 nM | selectivity β1-AR over β2-AR (β1-AR [2]; both isomers): ≥ 10 fold | fold Ki trans vs PSScis at β1-AR (β1-AR [2]): 18 fold | Active state at β1-AR (β1-AR [2]): trans | Ki (β1-AR [2]; [10]): 200 nM | Ki (β1-AR [2]; [11]): 12.6 nM | fold Ki trans vs PSScis at β2-AR (β2-AR [3]): 2.6 fold | Active state at β2-AR (β2-AR [3]): cis | Ki (β2-AR [3]; [12]): 3980 nM | Ki (β2-AR [3]; [13]): 10000 nM | λmax cis [4]: 429 nm | λmax trans [4]: 347 nm | t1/2 20°C (thermal relaxation of cis-isomer) [5]: >10 days

CCCc1ccccc1OCC(O)CNC(C)C (stereo not drawn) [[3H]dihydroalprenolol, dihydroalprenolol]
Bmax, β1-AR membranes (β1-AR [6]): 56 ± 16 pmol/mg | Bmax, β2-AR membranes (β2-AR [7]): 33 ± 19 pmol/mg

CC(C)NCC(O)COc1ccccc1/N=N\c1ccccc1 (stereo not drawn) [cis-Opto-prop-1]
selectivity in binding β2-AR over β1-AR (β2-AR [3]): 21 fold

CC(C)NCC(O)COc1cccc(/N=N\c2ccccc2)c1 (stereo not drawn) [cis-Opto-prop-2]
increase in β2-AR affinity upon 360 nm illumination (β2-AR [3]; cis vs trans): ~3 log-units | selectivity in binding β2-AR over β1-AR (β2-AR [3]): 78 fold | effect on isoprenaline-enhanced contractility [8]: attenuated

CC(C)NCC(O)c1ccc(O)c(O)c1 (stereo not drawn) [isoprenaline, reference compound]
effect on sarcomere shortening ([8]; 15 nM): further increased the shortening of the sarcomeres

CC(C)NCC(O)COc1cccc(/N=N/c2ccccc2)c1 (stereo not drawn) [trans-Opto-prop-2]
IC50 (β2-AR [9]): 1000 nM | fold Ki trans vs PSScis at β2-AR (β2-AR [3]): 587 fold | effect on isoprenaline-enhanced contractility [8]: not

CC(C)NCC(O)COc1ccc(/N=N/c2ccccc2)cc1 (stereo not drawn) [trans-Opto-prop-3]
selectivity in binding affinity β1-AR over β2-AR (β1-AR [2]; trans-isomer): 813 fold
